The values below come from publication PMC11822212, “High-throughput screening identifies Aurora kinase B as a critical therapeutic target for Merkel cell carcinoma” (Nature Communications, 2025).

The subject of one experiment is MCC13 cells (VN-MCC). As to the kind of experiment: qHTS cell viability (CellTiter-Glo, 72 h; primary and follow-up small molecule screen). Type of experiment: cell-based, human.
A further experiment deals with MCC26 cells (VN-MCC). Described as above. Type of experiment: cell-based, human.
Another experiment deals with UISO cells (VN-MCC). The experiment is described as above. The experiment is classed as cell-based, human.
Another experiment has as its system WAGA cells (VP-MCC). Described as above. Type of experiment: cell-based, human.
The next experiment relates to MKL-1 cells (VP-MCC). The experiment is described as above. The experiment is classed as cell-based, human.
The test system of another experiment is MKL-2 cells (VP-MCC). The experiment is described as above. Type of experiment: cell-based, human.
Another experiment relates to HACAT cells. As to the kind of experiment: qHTS cell viability (CellTiter-Glo, 72 h; primary screen), control cell line. Type of experiment: cell-based, human. A general note: In qHTS, concentration-response curves come from the screen itself.
For a further experiment, the system named is HEK293T cells. Described as above. The experiment is classed as cell-based, human.
For the next experiment, the system named is NIH-3T3 cells. The description is as above. Type of experiment: cell-based, mouse.
In the next experiment the test system is CRL-7250 cells. Described as above. The experiment is classed as cell-based.
The test system of experiment [1] is MCC cell lines (WAGA, MKL-1, MKL-2, MCC13, MCC26, UISO). As to the kind of experiment: qHTS cell viability, all six MCC cell lines as a group (mean AUC, MCC.avg). Type of experiment: cell-based, human.
Experiment [2] has as its system VP-MCC cell lines (WAGA, MKL-1, MKL-2). Put plainly: qHTS cell viability, VP-MCC cell lines as a group (mean AUC, VP.MCC.avg). The experiment is classed as cell-based, human.
The subject of experiment [3] is VN-MCC cell lines (MCC13, MCC26, UISO). As to the kind of experiment: qHTS cell viability, VN-MCC cell lines as a group (mean AUC, VN.MCC.avg). The experiment is classed as cell-based, human.
Experiment [4] relates to control cell lines (HACAT, HEK293T, CRL-7250, NIH-3T3). As to the kind of experiment: qHTS cell viability, control cell lines as a group (mean AUC, Control.avg). The experiment is classed as cell-based.
In experiment [5] the test system is six MCC cell lines and four control cell lines. As to the kind of experiment: qHTS cell viability, all 10 cell lines screened. Type of experiment: cell-based.
The mark [6] stands for this setting: MIPE library, 11-point DRC, sheet S2E.
The mark [7] stands for this setting: MIPE library, 11-point DRC, control cell line, sheet S2E.

Where two headings read alike, the source gives them in different places.

In turn, `CCNC(=O)Nc1ccc2ncc(Nc3ccc(C)cc3)nc2n1` [D-106669] gave an MCC13_AUC with MCC13 cells (VN-MCC) (setting [6]) of 484.886. In the experiment on MCC26 cells (VN-MCC) (setting [6]), the MCC26_AUC is listed as 446.547. In the experiment on UISO cells (VN-MCC) (setting [6]), this compound gave a UISO_AUC of 355.75. For the same compound, the WAGA_AUC in the experiment on WAGA cells (VP-MCC) (setting [6]) is listed as 400.326. The MKL1_AUC with MKL-1 cells (VP-MCC) (setting [6]) is 400.108. In the experiment with MKL-2 cells (VP-MCC) (setting [6]), the MKL2_AUC is 431.031. The compound further showed an HACAT_AUC with HACAT cells (setting [7]) of 474.569. This compound came in with an HEK293T_AUC in the experiment on HEK293T cells (setting [7]) of 479.506. In the experiment with NIH-3T3 cells (setting [7]), this compound returned an NIH3T3_AUC of 467.724. This compound yielded a CRL7250_AUC in the experiment with CRL-7250 cells (setting [7]) of 461.458. Further, in experiment [1] (MIPE library, mean AUC of six MCC cell lines, sheet S2E), the MCC_Avg_AUC was 419.775. In experiment [2] (MIPE library, Control AUC minus VP-MCC AUC (therapeutic window), sheet S2E), this compound returned a Control-VP-MCC of 60.3261. Besides, the VP-MCC_Avg_AUC in experiment [2] (MIPE library, mean AUC of VP-MCC cell lines, sheet S2E) was found to be 410.488. The compound also returned a Control-VN-MCC in [3] (MIPE library, Control AUC minus VN-MCC AUC (therapeutic window), sheet S2E) of 41.7531. This compound also gave a VN-MCC_Avg_AUC in experiment [3] (MIPE library, mean AUC of VN-MCC cell lines, sheet S2E) of 429.061. The same compound gave a Control_Avg_AUC in experiment [4] (MIPE library, mean AUC of control cell lines, sheet S2E) of 470.814. In addition, the Control-MCC in [5] (MIPE library, Control AUC minus MCC AUC (therapeutic window), sheet S2E) is given as 51.0396.
Compound `C[C@H](CN1CCOCC1)C(C(=O)N1CCCC1)(c1ccccc1)c1ccccc1.O=C(O)C(O)C(O)C(=O)O` [Dextromoramide tartrate] yielded an MCC13_AUC in the experiment on MCC13 cells (VN-MCC) of 446.289. This compound also gave an MCC26_AUC in the experiment on MCC26 cells (VN-MCC) of 445.292. The UISO_AUC in the experiment on UISO cells (VN-MCC) is recorded as 445.259. The WAGA_AUC with WAGA cells (VP-MCC) amounted to 399.942. The compound also showed an MKL1_AUC with MKL-1 cells (VP-MCC) of 389.502. Further, the MKL2_AUC in the experiment with MKL-2 cells (VP-MCC) is 383.165. In addition, in the experiment on HACAT cells, the HACAT_AUC was found to be 472.266. The HEK293T_AUC in the experiment on HEK293T cells came to 429.542. In the experiment on NIH-3T3 cells, this compound returned an NIH3T3_AUC of 477.478. Further, the CRL7250_AUC in the experiment on CRL-7250 cells worked out at 471.896. Besides, in experiment [1], the MCC_Avg_AUC is on record as 418.242. In [2], this compound displayed a Control-VP-MCC of 71.9259 and a VP-MCC_Avg_AUC of 390.87. In [3], this compound displayed a Control-VN-MCC of 17.1819 and a VN-MCC_Avg_AUC of 445.614. Besides, the Control_Avg_AUC in experiment [4] stood at 462.795. The compound further gave a Control-MCC in experiment [5] of 44.5539.
Consider `CC[N+](CC)(CC)CCOC(=O)C(C1CCCC1)C1CCCC1` [Diponium bromide], for which the MCC13_AUC was determined as 522.801 in the experiment with MCC13 cells (VN-MCC) (NPC library, qHTS dose-response AUC, MCC13) and 522.801 in the experiment on MCC13 cells (VN-MCC) (area under the dose-response curve, MCC13 cells, AUC<450 = reduced viability). Further, the MCC26_AUC in the experiment with MCC26 cells (VN-MCC) (NPC library, qHTS dose-response AUC, MCC26) came out at 499.996; with MCC26 cells (VN-MCC) (area under the dose-response curve, MCC26 cells, AUC<450 = reduced viability), 499.996. Moreover, the UISO_AUC in the experiment on UISO cells (VN-MCC) (NPC library, qHTS dose-response AUC, UISO) stood at 475.444; with UISO cells (VN-MCC) (area under the dose-response curve, UISO cells, AUC<450 = reduced viability), 475.444. In addition, the WAGA_AUC with WAGA cells (VP-MCC) (NPC library, qHTS dose-response AUC, WAGA) came to 427.062; with WAGA cells (VP-MCC) (area under the dose-response curve, WAGA cells, AUC<450 = reduced viability) it was 427.062. The MKL1_AUC in the experiment on MKL-1 cells (VP-MCC) (NPC library, qHTS dose-response AUC, MKL1) was found to be 427.875; in the experiment with MKL-1 cells (VP-MCC) (area under the dose-response curve, MKL-1 cells, AUC<450 = reduced viability), 427.875. The MKL2_AUC is 434.115 in the experiment with MKL-2 cells (VP-MCC) (NPC library, qHTS dose-response AUC, MKL2) and 434.115 with MKL-2 cells (VP-MCC) (area under the dose-response curve, MKL-2 cells, AUC<450 = reduced viability). For the same compound, the HACAT_AUC stood at 486.819 in the experiment with HACAT cells (NPC library, qHTS dose-response AUC, HACAT control) and 486.819 in the experiment with HACAT cells (area under the dose-response curve, HACAT control cells, AUC<450 = reduced viability). In addition, the HEK293T_AUC is given as 472.065 with HEK293T cells (NPC library, qHTS dose-response AUC, HEK293T control) and 472.065 in the experiment on HEK293T cells (area under the dose-response curve, HEK293T control cells, AUC<450 = reduced viability). Further, the NIH3T3_AUC with NIH-3T3 cells (NPC library, qHTS dose-response AUC, NIH3T3 control) turned out to be 484.264; with NIH-3T3 cells (area under the dose-response curve, NIH3T3 control cells, AUC<450 = reduced viability), 484.264. In addition, the CRL7250_AUC was 487.778 in the experiment with CRL-7250 cells (NPC library, qHTS dose-response AUC, CRL7250 control) and 487.778 in the experiment on CRL-7250 cells (area under the dose-response curve, CRL7250 control cells, AUC<450 = reduced viability). This compound displayed an MCC_Avg_AUC in [1] (NPC library, mean AUC of six MCC cell lines) of 464.549. The VP-MCC_Avg_AUC in experiment [2] (NPC library, mean AUC of VP-MCC cell lines) is reported as 429.684. This compound came in with a Control-VP-MCC in [2] (NPC library, therapeutic window: Control avg AUC minus VP-MCC avg AUC) of 53.0478. This compound also displayed a VN-MCC_Avg_AUC in [3] (NPC library, mean AUC of VN-MCC cell lines) of 499.413. In experiment [3] (NPC library, therapeutic window: Control avg AUC minus VN-MCC avg AUC), this compound displayed a Control-VN-MCC of -16.6818. The Control_Avg_AUC in experiment [4] (NPC library, mean AUC of control cell lines) was 482.732. Besides, the Control-MCC in [5] (NPC library, therapeutic window: Control avg AUC minus MCC avg AUC) is 18.183.
